Series [1] in a line: Toxicity in mouse xenografted with human MOLM-13 cells assessed as induction of cytoplasmic condensation at 40 mg/kg, po administered for 20 days by hematoxylin and eosin staining assay. The format is organism-based. As to conditions: in vivo, 480 h, time 20 day. For orientation: Xenograft models place foreign cells or tissue in a host animal.
Series [2] concerns the target Receptor-type tyrosine-protein kinase FLT3 (Homo sapiens) (UniProt P36888). The experiment in a line: Inhibition of FLT3 in human MOLM-13 cells assessed as reduction in STAT5 phosphorylation incubated for 2 hrs by Western blot analysis. Format: cell-based. On the technique in general: A western blot detects proteins with antibodies after separation by electrophoresis.

For the next series, the system named is MDA-MB-231. Put plainly: Antiproliferative activity against human MDA-MB-231 cells measured after 72 hrs by CCK8 assay. The format is functional, cell-based. The conditions noted are these: MDA-MB-231, 72 h.
For series [3], the target named is Receptor-type tyrosine-protein kinase FLT3 (Homo sapiens) (UniProt P36888). Put plainly: Inhibition of FLT3 in human MOLM-13 cells assessed as reduction in ERK phosphorylation incubated for 2 hrs by Western blot analysis. The format is cell-based.
The subject of the next series is HL-60. The experiment in a line: Antiproliferative activity against human HL-60 cells measured after 72 hrs by CCK8 assay. Format: functional, cell-based. As to conditions: HL-60, 72 h. On the technique in general: Tetrazolium dyes change colour on reduction, which living cells bring about.
For series [4], the target named is Mast/stem cell growth factor receptor Kit (Homo sapiens, UniProt P10721). Put plainly: Inhibition of c-KIT (unknown origin) incubated for 30 mins in presence of ATP by mobility shift assay.
Series [5] concerns the target Receptor-type tyrosine-protein kinase FLT3 (Homo sapiens) (UniProt P36888). The experiment in a line: Inhibition of FLT3 in human MOLM-13 cells assessed as reduction in autophosphorylation at tyr589/591 residue incubated for 2 hrs by Western blot analysis. Format: cell-based.
In series [6] the test system is MOLM-13. The experiment in a line: Antiproliferative activity against human quizartinib-resistant MOLM-13 cells at 333 nM incubated for 72 hrs by CCK8 assay relative to control. The format is functional.
A short description of series [7]: AUC (0 to last) in Sprague-Dawley rat at 1 mg/kg, iv. Format: ADME, organism-based. As to conditions: in vivo. The arrangement: route intravenous, time 0 - last, dose 1 mg/kg.
Series [8] has as its system MV4-11. The experiment in a line: Induction of cell cycle arrest in human MV4-11 cells assessed as accumulation at sub-G1 phase at 100 nM incubated for 24 hrs by flow cytometry (reference value: […]%). Format: functional.
The target in series [9] is Receptor-type tyrosine-protein kinase FLT3 (Homo sapiens) (UniProt P36888). The experiment in a line: Binding affinity to FLT3 (unknown origin) at 1000 nM relative to control.
A short description of series [10]: Toxicity in mouse xenografted with human MOLM-13 cells assessed as effect on heart at 10 to 40 mg/kg, po administered for 20 days by hematoxylin and eosin staining assay. The conditions noted are these: in vivo, 480 h, dose 10-40 mg/kg, time 20 day. The format is organism-based.
Another series concerns KG-1. The experiment in a line: Antiproliferative activity against human KG1 cells measured after 72 hrs by CCK8 assay. The format is functional, cell-based. The conditions noted are these: KG-1, 72 h.
In series [11] the test system is MOLM-13. Put plainly: Induction of cell cycle arrest in human MOLM-13 cells assessed as accumulation at G2/M phase at 1 nM incubated for 24 hrs by flow cytometry (reference value: […]). Format: functional.
In series [12] the test system is MV4-11. The experiment in a line: Antitumor activity against human MV4-11 cells xenografted in mouse assessed as tumor growth inhibition at 2.5 mg/kg, po administered for 20 days measured once every 2 days relative to control. Format: functional. As to conditions: MV4-11, po, 480 h, time 20 day, read-out: TGI.
The next series deals with THP-1. The experiment in a line: Antiproliferative activity against human THP-1 cells measured after 72 hrs by CCK8 assay. Format: functional, cell-based. The conditions noted are these: THP-1, 72 h.
Series [13] relates to Receptor-type tyrosine-protein kinase FLT3 (Homo sapiens), P36888 [D835V]. The experiment in a line: Binding affinity to FLT3 D835V mutant (unknown origin) at 1000 nM relative to control.
Series [14] is described as follows: Toxicity in mouse xenografted with human MOLM-13 cells assessed as effect on lung at 10 to 40 mg/kg, po administered for 20 days by hematoxylin and eosin staining assay. The format is organism-based. The conditions noted are these: in vivo, 480 h, dose 10-40 mg/kg, time 20 day.
The nature of series [15]: AUC (0 to infinity) in Sprague-Dawley rat at 1 mg/kg, iv. Format: ADME, organism-based. The arrangement: route intravenous, time infinity, dose 1 mg/kg. As to conditions: in vivo.
Series [16] addresses Receptor-type tyrosine-protein kinase FLT3 (Homo sapiens) (UniProt P36888). The experiment in a line: Inhibition of FLT3 in human MV4-11 cells assessed as reduction in ERK phosphorylation at 10 uM incubated for 2 hrs by Western blot analysis. The format is cell-based.
A short description of series [17]: Toxicity in mouse xenografted with human MV4-11 cells assessed as effect on heart at 2.5 to 10 mg/kg, po administered for 16 days by hematoxylin and eosin staining based assay. Format: organism-based. As to conditions: in vivo, 384 h, dose 2.5-10 mg/kg, time 16 day.
Series [18] has as its system MOLM-13. Put plainly: Antitumor activity against human MOLM-13 cells xenografted in mouse assessed as tumor growth inhibition at 20 mg/kg, po administered for 16 days measured once every 2 days relative to control. Format: functional. As to conditions: MOLM-13, po, 384 h, time 16 day, read-out: TGI.
For series [19], the target named is Receptor-type tyrosine-protein kinase FLT3 (Homo sapiens) (UniProt P36888). Put plainly: Inhibition of FLT3 in human MV4-11 cells assessed as suppression of autophosphorylation at tyr589/591 residue at 10 uM incubated for 2 hrs by Western blot analysis. The format is cell-based. Further details: scale not given: the % may be the effect or the level left.
A short description of series [20]: Toxicity in mouse xenografted with human MOLM-13 cells assessed as effect on liver at 10 to 40 mg/kg, po administered for 20 days by hematoxylin and eosin staining assay. As to conditions: in vivo, 480 h, dose 10-40 mg/kg, time 20 day. The format is organism-based.
A further series relates to HepG2. The experiment in a line: Antiproliferative activity against human HepG2 cells measured after 72 hrs by CCK8 assay. Format: functional, cell-based. As to conditions: HepG2, 72 h.

Active and inactive are the calls of the source. The rule behind the calls is not given here.

This is an account of results in ChEMBL document CHEMBL4823252 (J Med Chem, 2021).

Mast/stem cell growth factor receptor Kit, sequence (P10721 whole entry): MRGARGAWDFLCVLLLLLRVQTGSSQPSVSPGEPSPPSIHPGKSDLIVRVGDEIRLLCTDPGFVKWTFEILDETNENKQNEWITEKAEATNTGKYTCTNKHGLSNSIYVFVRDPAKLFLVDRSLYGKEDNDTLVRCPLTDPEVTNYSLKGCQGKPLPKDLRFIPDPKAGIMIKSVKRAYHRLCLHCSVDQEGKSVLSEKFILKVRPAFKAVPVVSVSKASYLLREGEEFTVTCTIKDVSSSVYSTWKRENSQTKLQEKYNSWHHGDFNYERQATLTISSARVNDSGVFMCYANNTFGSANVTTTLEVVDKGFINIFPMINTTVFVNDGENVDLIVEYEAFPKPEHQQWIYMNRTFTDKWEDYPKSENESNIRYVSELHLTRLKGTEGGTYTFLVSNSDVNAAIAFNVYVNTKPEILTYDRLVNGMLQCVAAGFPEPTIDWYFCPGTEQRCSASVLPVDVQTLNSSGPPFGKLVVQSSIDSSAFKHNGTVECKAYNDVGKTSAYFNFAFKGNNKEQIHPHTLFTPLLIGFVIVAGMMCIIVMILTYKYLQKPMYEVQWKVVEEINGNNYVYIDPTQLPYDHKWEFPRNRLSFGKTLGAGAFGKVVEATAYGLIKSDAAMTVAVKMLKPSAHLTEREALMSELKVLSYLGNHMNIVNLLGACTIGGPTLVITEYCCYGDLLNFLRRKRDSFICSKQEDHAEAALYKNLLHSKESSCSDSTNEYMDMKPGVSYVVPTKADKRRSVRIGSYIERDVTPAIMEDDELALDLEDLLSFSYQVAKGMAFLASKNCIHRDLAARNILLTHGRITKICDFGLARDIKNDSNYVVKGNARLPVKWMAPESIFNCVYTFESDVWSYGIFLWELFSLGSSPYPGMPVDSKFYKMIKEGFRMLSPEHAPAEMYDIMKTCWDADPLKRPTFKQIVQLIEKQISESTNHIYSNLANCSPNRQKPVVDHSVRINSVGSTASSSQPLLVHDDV

Consider `CCN(CC)CCNC(=O)c1c(C)[nH]c(/C=C2\C(=O)Nc3ccc(F)cc32)c1C` [SUNITINIB], for which the Activity entry in series [1] is recorded as “Toxic”.
The term IC50 denotes the midpoint of a concentration-inhibition curve. The term AUC(0-t) denotes the area under the concentration-time curve up to a stated or last time point. Broadly, the AUC(0-inf) is total exposure, with the tail of the curve extrapolated. In the case of `Cc1c(NC(=O)CCN2CCCC2)c[nH]c1/C=C1\C(=O)Nc2ccc(F)cc21`, the Activity entry is “Dose-Dependent Effect” in series [2]; “Dose-Dependent Effect” in [3]; “Dose-Dependent Effect” in series [5]; 13.4% in the series with MOLM-13 [6]; 30.54% in the series on MV4-11 [8]; “Non-Toxic” in series [10]. Further, the Activity in the series with MOLM-13 [11] is 7.13%; in [14] it was “Non-Toxic”; in [17], “Non-Toxic”; in series [19], 100%; in series [20] it was “Non-Toxic”. Also, the IC50 is 1830 nM in the series with MDA-MB-231; 4720 nM in the series with HL-60; greater than 1000 nM in series [4]; 1100 nM with KG-1; 3150 nM in the series on THP-1; 1690 nM in the series on HepG2. Besides, in [7], the area under the curve AUC(0-t) was 2880 ng·h/mL. Moreover, the result in [9], in [13] and in series [16] was Active. In the series on MV4-11 [12], the inhibition in vivo at 2.5 mg/kg was 55.7%. The compound also displayed an AUC(0-inf) in series [15] of 2970 ng·h/mL. For the same compound, in the series with MOLM-13 [18], the inhibition in vivo at 20 mg/kg worked out at 98%.
